Data published in PMC4459817, “Vasculotide reduces endothelial permeability and tumor cell extravasation in the absence of binding to or agonistic activation of Tie2” (EMBO Molecular Medicine, 2015).

B1: recombinant human Ang1 (rhAng1) (ligand, UniProt Q15389 16-498, looked up)
chain: HIGCSNQRRSPENSGRRYNRIQHGQCAYTFILPEHDGNCRESTTDQYNTNALQRDAPHVEPDFSSQKLQHLEHVMENYTQWLQKLENYIVENMKSEMAQIQQNAVQNHTATMLEIGTSLLSQTAEQTRKLTDVETQVLNQTSRLEIQLLENSLSTYKLEKQLLQQTNEILKIHEKNSLLEHKILEMEGKHKEELDTLKEEKENLQGLVTRQTYIIQELEKQLNRATTNNSVLQKQQLELMDTVHNLVNLCTKEGVLLKGGKREEEKPFRDCADVYQAGFNKSGIYTIYINNMPEPKKVFCNMDVNGGGWTVIQHREDGSLDFQRGWKEYKMGFGNPSGEYWLGNEFIFAITSQRQYMLRIELMDWEGNRAYSQYDRFHIGNEKQNYRLYLKGHTGTAGKQSSLILHGADFSTKDADNDNCMCKCALMLTGGWWFDACGPSNLNGMFYTAGQNHGKLNGIKWHYFKGPSYSLRSTTMMIRPLDF
notes: angiopoietin-1, human, recombinant; also called angiopoietin-1; source: bought: R&D Systems (named for the Boyden chamber experiments)

Experiments:
[1] = system: human Tie2-Fc (extracellular domain of Tie2); test: pull-down assay, human Tie2-Fc; assay type: binding; details: human Tie2-Fc on protein A sepharose; rhAng1 20 ng or VT 100 ng, pH 7.4, 4°C; Fig9A,B
Excerpt: To better understand the difficulties we had in observing Tie2 activation by VT, we sought to characterize the binding affinity and kinetics of VT to Tie2. Purified human or mouse Tie2-Fc (i.e., Fc-conjugated extracellular domains of Tie2) were first coupled to protein A sepharose beads for pull-down experiments (Fig9A and B) or immobilized on a Biacore CM5 sensor chip for surface plasmon resonance (SPR) experiments (Fig9C and Supplementary Fig S3).
Figure 9 Binding of Vasculotide vs. Ang1 variants to the extracellular domain of Tie2 • A–B Pull-down assay. Input ligands—rhAng1 (A) and VT (B)—were incubated with either protein A sepharose beads only, bead-conjugated mouse Tie2-Fc (mTie2), or bead-conjugated human Tie2-Fc (hTie2). […] The ‘unbound’ fraction is 7% of residual/free ligands remaining in the supernatant. • C Quantitative kinetics analysis by SPR. All analytes were run at increasing concentrations of 0.625, 1.25, 2.5, 5, and 10 nM, at 37°C and pH 7.4. […] Source data are available online for this figure. […]
Semi-quantitative densitometry analysis of immunoblots was performed using the ChemiGenius2 bioimaging system and GeneSnap/GeneTools software (Syngene). […]

[2] = system: dermal HMVECs; test: modified Boyden chamber, tumor cell-conditioned media (TC-CM) stimulated dextran permeability; assay type: cell-based, human; details: 20 ng/mL VT or 400 ng/mL Ang1 vs PBS; paired t-test, n = 11 experimental replicates; Fig4A
Procedure: To investigate this possibility in vitro, we performed modified Boyden chamber assays where we stimulated ECs with tumor cell-conditioned media (TC-CM)—that is, supplement-reduced EC growth media containing all the cytokines naturally secreted by LM2-4^luc, SN12^luc, or HT29^luc cells over 30 hours of hypoxic incubation (1% O2).
Meta-analyses of treatment effects on dextran permeability (A) and tumor cell migration (B), where each datapoint represents the mean of an independent experiment, averaged over 2–3 biological replicates (inserts) per treatment group and normalized internally within that same experiment.
Endothelial cells (ECs) were grown on cell culture inserts with uncoated 8-μm-pore PET filter membranes to 100% confluency. See Supplementary Fig S4 for detailed timelines. […] Permeability assays: A total of 100 μg of FITC-dextran (Sigma FD-20S) was dispensed into the upper chamber media. After 30 min of thrombin stimulation or 4–6 h of TC-CM stimulation, FITC fluorescence (ex/em = 490/520 nm) was measured from a 50 μl sample of the lower chamber media. […] CMPTX fluorescence from migrated TCs was then quantified from 10× microscopy images using a MATLAB (MathWorks, Natick, MA, USA) script; five images (technical replicates) were analyzed per insert. […]

Row | Molecule | pull-down by Tie2-Fc [1] | transendothelial macromolecular (dextran) permeability in presence of TC-CM [2]
1 | CHHHRHSF [Vasculotide, 4-armed maleimide-functionalized polyethylene glycol (PEG) backbone to link together four cysteine-capped T7 peptides, that is, CHHHRHSF] | did not pull down any appreciable levels | reduced transendothelial macromolecular permeability (P < 0.05
2 | B1 | effectively pulled down the majority | reduced transendothelial macromolecular permeability (P < 0.05
